Literature values as cited in patent publication US20180243418A1, “SYSTEMS AND METHODS FOR TARGETED CANCER THERAPIES” (American University of Sharjah, priority 2017, published 2018).

Assays:
VX2 carcinoma cells = details: rabbits implanted with VX2 carcinoma cells, intravenous
[1] = system: human and mice melanoma cells; details: melanoma cells treated for about 8 hours

Compound: COc1cccc2c1C(=O)c1c(O)c3c(c(O)c1C2=O)C[C@@](O)(C(=O)CO)C[C@@H]3O[C@H]1C[C@H](N)[C@H](O)[C@H](C)O1 [free Dox, doxorubicin]
- concentration of Dox in tumors (VX2 carcinoma cells): about 4.0±1.0 μg Dox/g tissues
- accumulation in the nucleus, of the initial amount [1]: about 26%
- initial concentration detected in the cell cytoplasm [1]: about 0.5%
